# HELM strings list units from the 5' end as sugar, base in round brackets, then linkage (d deoxyribose, r ribose, m 2'-O-methyl, p phosphodiester). Strings are as the collection lists them; they lack the last nucleoside at the 3' end of the tested compound. [moe] = 2'-O-(2-methoxyethyl) (MOE); [sp] = phosphorothioate linkage; [m5C] = 5-methylcytosine
# Biological target: GFAP
# Assay: mouse, dose not given
# Details: ASO
row,Substance,3 h FOB score [score 0-7]
1,RNA1{[moe](T)[sp].[moe](G)p.[moe](G)p.[moe]([m5C])p.[moe](A)p.[moe](G)p.d(T)[sp].d(A)[sp].d(T)[sp].d(T)[sp].d(A)[sp].d([m5C])[sp].d([m5C])[sp].d(T)[sp].d([m5C])[sp].d(T)[sp].[moe](A)p.[moe]([m5C])[sp].[moe](T)}$$$$ (last 3' nucleoside missing),0
2,RNA1{[moe](T)[sp].[moe](G)p.[moe](G)p.[moe]([m5C])p.[moe](A)p.d(G)[sp].d(T)[sp].d(A)[sp].d(T)[sp].d(T)[sp].d(A)[sp].d([m5C])[sp].d([m5C])[sp].d(T)[sp].d([m5C])[sp].[moe](T)p.[moe](A)p.[moe]([m5C])[sp].[moe](T)}$$$$ (last 3' nucleoside missing),1
3,RNA1{[moe](T)[sp].[moe](G)p.[moe](G)p.[moe]([m5C])p.d(A)[sp].d(G)[sp].d(T)[sp].d(A)[sp].d(T)[sp].d(T)[sp].d(A)[sp].d([m5C])[sp].d([m5C])[sp].d(T)[sp].[moe]([m5C])p.[moe](T)p.[moe](A)p.[moe]([m5C])[sp].[moe](T)}$$$$ (last 3' nucleoside missing),1
4,RNA1{[moe](T)[sp].[moe](G)p.[moe](T)p.[moe](A)p.[moe](T)p.d(T)[sp].d(A)[sp].d(G)[sp].d(G)[sp].d(A)[sp].d(T)[sp].d([m5C])[sp].d([m5C])[sp].d([m5C])[sp].d(A)[sp].[moe](T)p.[moe]([m5C])p.[moe](T)[sp].[moe](A)}$$$$ (last 3' nucleoside missing),4
5,RNA1{[moe](T)[sp].[moe](G)p.[moe](T)p.[moe](A)p.d(T)[sp].d(T)[sp].d(A)[sp].d(G)[sp].d(G)[sp].d(A)[sp].d(T)[sp].d([m5C])[sp].d([m5C])[sp].d([m5C])[sp].[moe](A)p.[moe](T)p.[moe]([m5C])p.[moe](T)[sp].[moe](A)}$$$$ (last 3' nucleoside missing),3
6,RNA1{[moe](T)[sp].[moe](G)p.[moe](T)p.[moe](G)p.[moe](A)[sp].d(T)[sp].d(T)[sp].d(T)[sp].d(T)[sp].d([m5C])[sp].d([m5C])[sp].d([m5C])[sp].d([m5C])[sp].[moe](G)p.[moe](T)p.[moe]([m5C])[sp].[moe](T)}$$$$ (last 3' nucleoside missing),0
7,RNA1{[moe](T)[sp].[moe](G)p.[moe](T)p.[moe](G)p.[moe](A)[sp].d(T)[sp].d(T)[sp].d(T)[sp].d(T)[sp].d([m5C])[sp].d([m5C])[sp].d([m5C])[sp].d([m5C])[sp].d(G)[sp].d(T)[sp].[moe]([m5C])p.[moe](T)p.[moe](T)[sp].[moe](T)}$$$$ (last 3' nucleoside missing),5
8,RNA1{[moe](T)[sp].[moe](G)p.[moe](T)p.[moe](G)p.[moe](A)[sp].d([m5C])[sp].d(T)[sp].d(A)[sp].d(T)[sp].d([m5C])[sp].d(T)[sp].d(A)[sp].d(G)[sp].[moe](G)p.[moe](A)p.[moe](T)[sp].[moe](T)}$$$$ (last 3' nucleoside missing),3
9,RNA1{[moe](T)[sp].[moe](G)p.[moe](T)p.[moe](G)p.[moe](T)[sp].d(A)[sp].d(T)[sp].d(T)[sp].d(A)[sp].d(G)[sp].d(G)[sp].d(A)[sp].d(T)[sp].[moe]([m5C])p.[moe]([m5C])p.[moe]([m5C])[sp].[moe](A)}$$$$ (last 3' nucleoside missing),4
10,RNA1{[moe](T)[sp].[moe](G)p.[moe](T)p.[moe](G)p.[moe](T)p.[moe](A)p.d(T)[sp].d(T)[sp].d(A)[sp].d(G)[sp].d(G)[sp].d(A)[sp].d(T)[sp].d([m5C])[sp].d([m5C])[sp].d([m5C])[sp].[moe](A)p.[moe](T)[sp].[moe]([m5C])}$$$$ (last 3' nucleoside missing),3
11,RNA1{[moe](T)[sp].[moe](G)p.[moe](T)p.[moe](G)p.[moe](T)p.d(A)[sp].d(T)[sp].d(T)[sp].d(A)[sp].d(G)[sp].d(G)[sp].d(A)[sp].d(T)[sp].d([m5C])[sp].d([m5C])[sp].[moe]([m5C])p.[moe](A)p.[moe](T)[sp].[moe]([m5C])}$$$$ (last 3' nucleoside missing),3
12,RNA1{[moe](T)[sp].[moe](G)p.[moe](T)p.[moe](G)p.[moe]([m5C])[sp].d(T)[sp].d(T)[sp].d(T)[sp].d(A)[sp].d(G)[sp].d(T)[sp].d(G)[sp].d(A)[sp].d([m5C])[sp].d([m5C])[sp].[moe](T)p.[moe](G)p.[moe](T)[sp].[moe](G)}$$$$ (last 3' nucleoside missing),5
13,RNA1{[moe](T)[sp].[moe](G)p.[moe](T)p.[moe](G)p.d(T)[sp].d(A)[sp].d(T)[sp].d(T)[sp].d(A)[sp].d(G)[sp].d(G)[sp].d(A)[sp].d(T)[sp].d([m5C])[sp].[moe]([m5C])p.[moe]([m5C])p.[moe](A)p.[moe](T)[sp].[moe]([m5C])}$$$$ (last 3' nucleoside missing),3
14,RNA1{[moe](T)[sp].[moe](G)p.[moe](T)p.[moe]([m5C])p.[moe](T)[sp].d(T)[sp].d(T)[sp].d(A)[sp].d(T)[sp].d(T)[sp].d(T)[sp].d(T)[sp].d(T)[sp].[moe]([m5C])p.[moe]([m5C])p.[moe](T)[sp].[moe]([m5C])}$$$$ (last 3' nucleoside missing),1
15,RNA1{[moe](T)[sp].[moe](G)p.[moe](T)p.[moe]([m5C])p.[moe](T)[sp].d(T)[sp].d(T)[sp].d(A)[sp].d(T)[sp].d(T)[sp].d(T)[sp].d(T)[sp].d(T)[sp].d([m5C])[sp].d([m5C])[sp].[moe](T)p.[moe]([m5C])p.[moe](A)[sp].[moe](G)}$$$$ (last 3' nucleoside missing),2
16,RNA1{[moe](T)[sp].[moe](G)p.[moe](T)p.[moe]([m5C])p.[moe](T)p.[moe](T)p.d(T)[sp].d(A)[sp].d(T)[sp].d(T)[sp].d(T)[sp].d(T)[sp].d(T)[sp].d([m5C])[sp].d([m5C])[sp].d(T)[sp].[moe]([m5C])p.[moe](A)[sp].[moe](G)}$$$$ (last 3' nucleoside missing),1
17,RNA1{[moe](T)[sp].[moe](G)p.[moe](T)p.[moe]([m5C])p.d(T)[sp].d(T)[sp].d(T)[sp].d(A)[sp].d(T)[sp].d(T)[sp].d(T)[sp].d(T)[sp].d(T)[sp].d([m5C])[sp].[moe]([m5C])p.[moe](T)p.[moe]([m5C])p.[moe](A)[sp].[moe](G)}$$$$ (last 3' nucleoside missing),2
18,RNA1{[moe](T)[sp].[moe](G)p.[moe]([m5C])p.[moe](T)p.[moe](T)[sp].d(T)[sp].d(T)[sp].d(G)[sp].d([m5C])[sp].d([m5C])[sp].d([m5C])[sp].d([m5C])[sp].d([m5C])[sp].d(T)[sp].d([m5C])[sp].[moe](G)p.[moe](A)p.[moe](A)[sp].[moe](T)}$$$$ (last 3' nucleoside missing),4
19,RNA1{[moe](T)[sp].[moe](G)p.[moe]([m5C])p.[moe]([m5C])p.[moe](A)[sp].d(T)[sp].d(T)[sp].d(T)[sp].d(A)[sp].d(T)[sp].d([m5C])[sp].d(T)[sp].d(G)[sp].[moe](T)p.[moe](G)p.[moe]([m5C])[sp].[moe](T)}$$$$ (last 3' nucleoside missing),3
20,RNA1{[moe](T)[sp].[moe](G)p.[moe]([m5C])p.[moe]([m5C])p.[moe](A)p.[moe](T)p.d(T)[sp].d(T)[sp].d(A)[sp].d(T)[sp].d([m5C])[sp].d(T)[sp].d(G)[sp].d(T)[sp].d(G)[sp].d([m5C])[sp].[moe](T)p.[moe](T)[sp].[moe](T)}$$$$ (last 3' nucleoside missing),2
21,RNA1{[moe](T)[sp].[moe](G)p.[moe]([m5C])p.[moe]([m5C])p.[moe](A)p.d(T)[sp].d(T)[sp].d(T)[sp].d(A)[sp].d(T)[sp].d([m5C])[sp].d(T)[sp].d(G)[sp].d(T)[sp].d(G)[sp].[moe]([m5C])p.[moe](T)p.[moe](T)[sp].[moe](T)}$$$$ (last 3' nucleoside missing),1
22,RNA1{[moe](T)[sp].[moe](G)p.[moe]([m5C])p.[moe]([m5C])p.[moe]([m5C])[sp].d([m5C])[sp].d([m5C])[sp].d([m5C])[sp].d(G)[sp].d([m5C])[sp].d([m5C])[sp].d([m5C])[sp].d(T)[sp].d([m5C])[sp].d([m5C])[sp].[moe](T)p.[moe]([m5C])p.[moe]([m5C])[sp].[moe]([m5C])}$$$$ (last 3' nucleoside missing),4
23,RNA1{[moe](T)[sp].[moe](G)p.[moe]([m5C])p.[moe]([m5C])p.d(A)[sp].d(T)[sp].d(T)[sp].d(T)[sp].d(A)[sp].d(T)[sp].d([m5C])[sp].d(T)[sp].d(G)[sp].d(T)[sp].[moe](G)p.[moe]([m5C])p.[moe](T)p.[moe](T)[sp].[moe](T)}$$$$ (last 3' nucleoside missing),0
24,RNA1{[moe](T)[sp].[moe](T)p.[moe](A)p.[moe](T)p.[moe](T)[sp].d(T)[sp].d(T)[sp].d(T)[sp].d([m5C])[sp].d([m5C])[sp].d(T)[sp].d([m5C])[sp].d(A)[sp].[moe](G)p.[moe]([m5C])p.[moe](G)[sp].[moe](A)}$$$$ (last 3' nucleoside missing),0
25,RNA1{[moe](T)[sp].[moe](T)p.[moe](G)p.[moe](A)p.[moe](G)[sp].d(A)[sp].d(T)[sp].d(A)[sp].d(T)[sp].d([m5C])[sp].d(T)[sp].d(T)[sp].d(G)[sp].[moe](T)p.[moe](G)p.[moe](A)[sp].[moe]([m5C])}$$$$ (last 3' nucleoside missing),3
26,RNA1{[moe](T)[sp].[moe](T)p.[moe](G)p.[moe](A)p.[moe](G)[sp].d(A)[sp].d(T)[sp].d(A)[sp].d(T)[sp].d([m5C])[sp].d(T)[sp].d(T)[sp].d(G)[sp].d(T)[sp].d(G)[sp].[moe](A)p.[moe]([m5C])p.[moe]([m5C])[sp].[moe](T)}$$$$ (last 3' nucleoside missing),4

# Source: the OligoGym collection
